By Ki is commonly meant the equilibrium dissociation constant of an inhibitor or competing ligand from its target.

The values that follow come from patent US12458608B2 (NACUITY PHARMACEUTICALS, INC., priority 2019, dated 2025).

Each structure is given as a SMILES string. “Also recorded” adds a separate entry of the source.

In data set [1] the test system is Light melanin human skin explant. As to the kind of experiment: Human skin explants exposed to UVA radiation, GSSG/thiol analysed by LCMS. The format is cell-based. To be noted: for Levels of thiol production in human skin exposed to UVA-induced oxidative skin damage: FIG. 3; for Dermal GSSG / levels of GSSG production: topical 100 mM in 10% DMSO/water 30 min prior to UVA (24 J/cm2), tissue harvested 24 hours after UVA, single donor, n=6. On the procedure: Effects of NPI-001 (NACA 10 mM) and diNACA (10 mM) on human skin explants upon radiation (UVA) exposure.
Light melanin human skin explant (single donor; n=6) in transwells were exposed to UVA radiation (24 J/cm2) with and without topical application of the NPI-001 and diNACA at a final concentration of 100 mM (NPI-001 16.2 mg/ml; diNACA 32.2 mg/ml) dissolved or suspended in 10% DMSO/water and applied at ˜18 μl/cm2(˜6 μl/0.33 cm2) 30 min prior to UVA exposure (24 J/cm2 exposure). 24 hours following UVA exposure tissue was harvested, cut in half and heat separated into epidermal and dermal layers; weighed; immediate submersion of the dermal and epidermal layers into a derivatization solution, analyzed by LCMS.

Data set [2] has as its system Reconstructed human epithelium (RHE) with melanocytes (MelanoDerm). Briefly: Reconstructed human epithelium (RHE) model to assess decrease of pigmentation in skin (photographs, melanin extraction). The format is cell-based. The conditions noted are these: for RHE pigmentation: MelanoDerm RHE cultured 14 days, basolateral treatment every other day, NACA 10 mM, diNACA 10 mM, 2% GSSG, vs relative day untreated control. On the procedure: Reconstructed human epithelium (RHE) model to assess the ability of NPI-001 and NPI2 to decrease pigmentation in skin:
Reconstructed human epithelium (RHE) with melanocytes were obtained from MatTek (MelanoDerm™ cat #MEL-300B). RHE were cultured for 14 days with reapplication of media with basolateral treatment every other day. Day 0, Day 7 and Day 14 RHE were photographed and frozen for melanin extraction.
After harvest of RHE on Day 14, cultures were submerged for 30 min in 1% sodium bicarbonate and transferred to Eppendorf tubes with 500 μl Solvable™ reagent for overnight incubation at 60° C. A synthetic melanin standard curve was made in Solvable™ reagent from 0.5-0.0039 mg/ml in half dilutions. 200 μl of extracted melanin was transferred to a 96 well plate and read at 490 nm for quantification.

The conditions of data set [3]: cited from earlier work.
In data set [4] the target is glutamate cysteine ligase (GCL, EC 6.3.2.2). To be noted: nonallosteric competitive inhibition; cited from earlier work.

Regarding `CC(=O)N[C@@H](CSSC[C@H](NC(C)=O)C(N)=O)C(N)=O` [diNACA, (2R,2R′)-3,3′-disulfanediyl bis(2-acetamidopropanamide)], the “Levels of thiol production in human skin exposed to UVA-induced oxidative skin damage” value in data set [1] was “increased”. Besides, in data set [1], the “Dermal GSSG / levels of GSSG production” value is given as “increased; also recorded: statistically significant increases”. Besides, the RHE pigmentation result was “decreased; also recorded: significantly inhibited” in data set [2] and “decreased” in data set [2] (listed as NPI2). The “Melanin extracted from RHE” value in data set [2] (after 0, 7 and 14 days with treatment, read at 490 nm, vs untreated control at relative day of harvest) is on record as “decreased”.
On to `CC(=O)N[C@@H](CS)C(=O)O` [NAC, N-acetylcysteine], for which, in data set [3] (10-12 hours after administration), the “NAC detectable after administration” value is listed as “no NAC is detectable”. Moreover, the Plasma half-life in data set [3] (humans) is 2.5 h. In addition, in data set [3] (oral dose of 600 mg in humans), the Absorption and clearance entry is “rapidly absorbed and then rapidly cleared”.
For the compound `CC(=O)N[C@@H](CS)C(N)=O`, in data set [1], the “Levels of thiol production in human skin exposed to UVA-induced oxidative skin damage” value is on record as “increased” and the “Dermal GSSG / levels of GSSG production” value is reported as “increased; also recorded: statistically significant increases”.
Turning to `N[C@@H](CCC(=O)N[C@@H](CS)C(=O)NCC(=O)O)C(=O)O` [GSH, c-L-glutamyl-L-cysteinyl-glycine], in data set [4], the inhibition constant Ki was 2300 µM.
